Measured values from patent US10842849B2, “Methods for promoting neuronal outgrowth by insulin-like growth factor binding protein-like 1 (IGFBPL-1) in glaucoma or leber's optic neuropathy” (The Schepens Eye Research Institute, Inc., priority 2011, dated 2020).
“Also recorded” adds a separate entry of the source.

Legend:
[1] = system: cultured RGCs derived from P10 mice; experiment: P10 RGC culture: axon length and survival; format: cell-based, mouse; details: for axon length / neurite outgrowth: treated 3 days
Description: Cells were treated with control, IGF-I, IGFBPL1 or both for 3 days and were immunostained with βIII-tubulin to reveal axons.

[2] = system: mTOR; experiment: P10 retina incubation, western blot of phosphorylated mTOR; format: cell-based, mouse; details: P10 retinas incubated 30 min or 6 hours at 37° C.
Description: (§1) P10 retinas were dissected and incubated with IGF-I, IGFBPL1 and IGF-I+IGFBPL1 for 30 min or 6 hours at 37° C. Retina lysates were prepared for western blotting, using antibodies against IGF-1-mediated downstream signals, mTOR and Akt.

[3] = system: Akt; experiment: P10 retina incubation, western blot of phosphorylated Akt; format: cell-based, mouse; details: P10 retinas incubated 30 min or 6 hours at 37° C.
Description: as §1

[4] = system: Retinal ganglion cells (RGCs) isolated from P0 mice; experiment: P0 RGC culture: neurite outgrowth and survival; format: cell-based, mouse; details: for RGC neurite outgrowth / axonal extension: P0 RGC cultures, 3 days, beta-III-tubulin/Tuj1 immunostaining; for RGC cell survival: P0 RGCs; for effect on IGFBPL-1 induced neurite/axon growth: P0 RGC cultures treated with IGFBPL-1 plus inhibitor or neutralizing antibody
From the text: The experiments described herein were aimed to elucidate the functional role and mechanisms of IGFBPL-1 on RGC survival and axon extension in mice. The expression pattern of IGFBPL-1 in the developing retina was examined in retinas at different developmental stage, ranging from embryonic day 16 through adult, using immunohistochemistry, western blot and quantitative RT-PCR. Retinal ganglion cells were purified using magnetic beads conjugated with Thy1.2 antibody from new born mouse pups at postnatal day 0 (P0), and cultured for up to five days in the presence or absence of IGFBPL-1 and/or IGF-I proteins. RGC survival and axonal growth were evaluated after three days in culture following LIVE/DEAD® and β-III-tubulin immunostaining. Lentiviral shRNAs were used to knockdown the expression of IGFBPL-1 and/or IGF-I in culture. The functional role of IGFBPL-1 in RGC development was further evaluated in IGFBPL-1 knockout (KO) mouse. RGC morphology and number were recorded using retinal vertical sections or whole-mount preparation. The number of axons in the optic nerve head was counted under electron microscopy. Data collected from the IGFBPL-1 KO mice were compared with that obtained from age-matched wildtype C57BL/6 littermates.
RGC neurite outgrowth in the absence (FIG. 3A) and presence (FIG. 3B) of IGFBPL-1 promotes in RGC cell culture. Retinal ganglion cells (RGCs) isolated from P0 mice were cultured in the absence (control) and presence of IGFBPL-1 (IGFBPL-1) for 3 days and were immunolabeled with primary antibody against a RGC specific marker Tuj1 (red). Note that RGCs extend long neurite in IGFBPL-1-treated cultures as compared to control culture group.

[5] = molecular target: IGF-1 (Mus musculus, UniProt P05017); experiment: Co-immunoprecipitation of IGFBPL-1 and IGF-1 (western blot); format: binding; details: mouse recombinant proteins and retina lysates
Chain of IGF-1 (P05017 1-118 limits assumed): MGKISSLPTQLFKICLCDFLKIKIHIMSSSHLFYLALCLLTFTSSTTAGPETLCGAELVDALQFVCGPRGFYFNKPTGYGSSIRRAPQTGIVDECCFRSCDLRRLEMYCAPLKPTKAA
From the text: FIGS. 5(I) A and B and FIGS. 5 (II) A and B are western blots showing binding of IGFBP-1 with IGF-I using mouse recombinant IGFBPL-1 and IGF-1 (FIG. 5(I)) and retina lysates (FIG. 5(II)).

[6] = system: hippocampal neurons; experiment: Hippocampal neuronal cultures: neurite outgrowth; format: cell-based; details: beta III tubulin staining
From the text: FIG. 9B are histograms showing quantification of neurite outgrowth in control; and neurons exposed to IGFBPL-1; IGF-1; IGFBPL-1+IGF-1; IGFBPL-1+H1356; IGFBPL-1+Neut. Ab; IGFBPL-1+IGFI-1+Neut. Ab.

[7] = system: RGC axons after optic nerve crush; experiment: Optic nerve regeneration in vivo after optic nerve crush; details: intravitreous delivery, optic nerve crush in mice
From the text: IGF-1 ([…]). IGFBPL-1 (n=7). IGF1+IGFBPL1 (n=6).

IGF-1: Insulin Growth Factor 1 protein
RGC survival [1]: affect the survival
axon length / neurite outgrowth [1]: does not promote neurite outgrowth
phosphorylation of mTOR [2]: increased level of phosphorylated mTOR and Akt
phosphorylation of Akt [3]: increased level of phosphorylated mTOR and Akt
RGC neurite outgrowth / axonal extension [4]: robust neurite outgrowth
RGC neurite outgrowth / axonal extension ([4]; listed as IGF-I): promotes both neurite outgrowth and cell survival
RGC cell survival [4]: promotes both neurite outgrowth and cell survival

O=C(O)c1cc2cc(O)c(O)cc2c(C(=O)c2ccc(O)c(O)c2)n1 [NBI-31772, reference compound]
effect on IGFBPL-1 induced neurite/axon growth [4]: abolishes the neurite growth effect of IGFBPL-1
effect on IGFBPL-1 induced neurite/axon growth ([4]; listed as inhibitor of IGF-I and IGFBP binding): abolishes the growth promoting activity of IGFBPL1

B1: IGFBPL-1: insulin-like growth factor binding protein-like 1 protein; mouse recombinant IGFBPL-1 used in tests (protein)
chain: LGLRDAGRRHPECSPCQQDRCPAPSPCPAPWISARDECGCCARCLGAEGASCGGPVGSRCGPGLVCASRASGTAPEGTGLCVCAQRGAVCGSDGRSYSSICALRLRARHAPRAHHGHLHKARDGPCEFAPVVLMPPRDIHNVTGTQVFLSCEVKAVPTPVITWKKVKHSPEGTEGLEELPGDHVNIAVQVRGGPSDHETTSWILINPLRKEDEGVYHCHAANAIGEAQSHGTVTVLDLNRYKSLYSSVPGDLL
binding / interaction with IGF-1 [5]: directly interacts with IGF-1
neurite growth in hippocampal neuronal cultures [6]: induced neurite growth
RGC survival [1]: affect the survival
axon length / neurite outgrowth [1]: does not promote neurite outgrowth
phosphorylation of mTOR [2]: prolongs the phosphorylation
regeneration of RGC axons [7]: significantly promotes the regeneration of RGC axons
RGC neurite outgrowth / axonal extension [4]: significantly promoted axonal extension; also recorded: promotes RGC neurite outgrowth; also recorded: stimulates neurite outgrowth; also recorded: robust neurite outgrowth
RGC neurite outgrowth / axonal extension ([4]; listed as IGFBPL1): promotes both neurite outgrowth and cell survival
RGC cell survival [4]: promotes both neurite outgrowth and cell survival
